In US6080425A, “Boron compounds and complexes as skin-rejuvenating agents” (TopGene, Inc., priority 1998, dated 2000):
Entries after “also recorded” stand apart in the source; their conditions may differ.

Experiments:
HIV = conditions: cited from earlier work
normal human fibroblasts [1] = assay: Cytotoxicity on normal human fibroblasts by MTT assay (FIG. 3); type: cell-based; conditions: 72 hours; for cytotoxic effects (MTT assay), in words: single dose, normal human fibroblasts, FIG. 3: increasing concentrations
Description: (§1) FIGS. 3-7 illustrate results of experiments designed to elucidate some of the biological properties that may be present in contemplated boron compounds/complexes. In these examples, we studied the action of two boron complexes: sodium fructo-borate (SFB) and sodium salicylato-borate (SSB), upon normal human fibroblasts, in comparison to untreated fibroblasts and ones treated with boric acid (BA, uncomplexed with any ligand). FIG. 3 depicts results of a single dose treatment of human fibroblasts with increasing concentrations of BA, SFB and SSB for 72 hours in order to determine their cytotoxic effects (by MTT assay).

cat fleas = conditions: ingestion by cat fleas; cited from earlier work
[2] = tested on: chick embryo pelvic cartilage; conditions: cited from earlier work
human platelets = conditions: intact human platelets stimulated by thrombin or leukotriene B4; extracellular addition; cited from earlier work
[3] = tested on: rat cerebral microsomal preparations; conditions: cited from earlier work
neutrophiles = conditions: intact neutrophiles stimulated by thrombin or leukotriene B4; extracellular addition; cited from earlier work
normal human fibroblasts [4] = assay: Multi-parameter analysis of biological activity, labeling cells with tritiated Uridine, Thymidine, Leucine and Proline (FIG. 7); type: cell-based; conditions: labeling for 8 hours
Description: FIG. 7 is a graph depicting a multi-parameter analysis of biological activity of complex B.
as §1
FIG. 7 depicts a multi-parameter analysis of biological activity of SFB.

human fibroblasts = assay: H3Proline/H3Leucine incorporation in human fibroblasts (FIG. 5); type: cell-based; conditions: single dose, compared to untreated cells
normal human fibroblasts [5] = assay: H3Proline incorporation in human fibroblasts (FIG. 4); type: cell-based; conditions: single dose, 72 hours, vs BA, SFB, SSB
Protocol: FIG. 4 is a graph depicting experimental results of H3Proline incorporation (in human fibroblasts) upon treatment with A, B, and C compared to untreated cells.
FIG. 4 depicts results from treatment of normal human fibroblasts with a single dose of BA, SFB and SSB for 72 hours, whereupon the final degree of incorporation of H3Proline was determined. The degree of H3Proline incorporation is a measure of the ongoing biosynthesis of collagen in treated cells.

normal human fibroblasts [6] = assay: Collagen synthesis: ratio of H3Proline to H3Thymidine incorporation in human fibroblasts (FIG. 6); type: cell-based; conditions: single dose, 72 hours
Protocol: FIG. 6 is a graph depicting experimental results of increase of collagen synthesis (measured by determination of ratio between incorporation of H3Proline and H3Thymidine) in human fibroblasts by treating them with A, B and C, compared to untreated cells.
FIG. 6 depicts the results of a single dose treatment of normal human fibroblasts with the selected compounds for 72 hours, in which case the increase of collagen synthesis was calculated by ratio between incorporation of H3Proline over the incorporation of H3Thymidine under the same experimental conditions. In this experiment, SFB was best at the concentration of 1 ug/ml, while at the concentration of 10 ug/ml its activity was next to BA. […] These properties are of special value for skin-rejuvenation purposes.

[7] = same concentration, great molar excess of glucose in culture medium

CC(C)[C@@H](N)C(=O)O[C@H](C)[C@@H]1C/C=C\CC[C@H](O)C(C)(C)[C@@H]2CC[C@@H](C)[C@@]3(O2)O[B-]24O[C@@H](C(=O)O1)[C@]1(O[C@@H](CC[C@H]1C)C(C)(C)[C@H](O)CCC[C@@H]1C[C@H](OC(=O)[C@@H]3O2)[C@@H](C)O1)O4.[H+] [boromycin]
anti-HIV activity (HIV): anti-HIV antibiotic

O.O.O.O.O.O.O.O.O.O.[Na+].[Na+].[O-]B1OB2OB([O-])OB(O1)O2 [sodium borate, reference compound]
cytotoxic effects (MTT assay), in words (normal human fibroblasts [1]): minimal cytotoxic effects

O.O.O.O.O=BOB1OB(OB=O)OB2OB([O-])OB([O-])OB(O1)O2.[Na+].[Na+] [disodium octaborate tetrahydrate]
larvicidal effects (cat fleas): Larvicidal effects

OB(O)O [BA, boric acid]
larvicidal effects (cat fleas): Larvicidal effects
intracellular synthesis of proteoglycans, collagen and TNF-alpha ([2]; 1-3% aqueous boric acid): strongly decreases
release of proteoglycans, collagen and TNF-alpha into the culture medium ([2]; 1-3% aqueous boric acid): induces release
intracellular protein synthesis [2, 7]: does not decrease
protein secretion into the culture medium [2, 7]: still stimulates

NCCOB(c1ccccc1)c1ccccc1 [Example 2-APB, 2-amonoethoxydiphenyl borate]
inhibition of cytosolic Ca rise (human platelets): inhibited
inhibition of Ins(1,4,5)P3-induced Ca release [3]: inhibited
inhibition of cytosolic Ca rise (neutrophiles): inhibited

sodium fructo-borate [SFB]
fold less toxic than BA (boric acid) (normal human fibroblasts [1]; 100 ug/ml, MTT assay): ~4 times
cytotoxic effects (MTT assay), in words (normal human fibroblasts [1]): least toxic; also recorded: least toxicity
cytotoxic effects (MTT assay), in words (normal human fibroblasts [1]; listed as sodium fructo-borate): minimal cytotoxic effects
cytotoxic effects (MTT assay), in words (normal human fibroblasts [1]; listed as sodium fructoborate): considerably less toxic than boric acid
overall effects (tritiated Uridine, Thymidine, Leucine and Proline labeling), in words (normal human fibroblasts [4]): quite favorable and beneficial
preferred incorporation of H3Proline over H3Leucine, in words (human fibroblasts): quite close
degree of incorporation of H3Proline (measure of collagen biosynthesis), in words (normal human fibroblasts [5]): most beneficial effect
increase of collagen synthesis (ratio H3Proline/H3Thymidine incorporation), in words (normal human fibroblasts [6]; 1 ug/ml): best
increase of collagen synthesis (ratio H3Proline/H3Thymidine incorporation), in words (normal human fibroblasts [6]; 10 ug/ml): next to BA

O=C1O[B-]2(OC(=O)c3ccccc3O2)Oc2ccccc21 [SSB, sodium salicylato-borate]
preferred incorporation of H3Proline over H3Leucine, in words (human fibroblasts): best performance
